Data published in patent publication US20030148970A1, “Methods for specifically inhibiting histone deacetylase-4” (priority 2001, published 2003).

Assays:
human HDAC-3 = biological target: T1, human HDAC-3 (Homo sapiens, UniProt O15379); experiment: histone deacetylase enzyme assay, HDAC-3; format: biochemical
T1 construct: made in house; host or cells: insect cells (baculovirus expression system)
Method: (§1) The other HDAC isotypes, HDAC-3 and HDAC-4, were purified directly on an anti-Flag affinity column.
(§2) For the deacetylase assay, 20,000 cpm of an [^3H]-metabolically-labeled acetylated histone was used as a substrate. Histones were incubated with cloned recombinant human HDAC enzymes at 37° C. […] All assay conditions were pre-determined to be certain that each reaction was linear. Reactions were stopped by adding acetic acid (0.04 M final concentration) and HCl (250 mM, final concentration). The mixture was extracted with ethyl acetate, and the released [3H]-acetic acid was quantified by liquid scintillation counting. For the inhibition studies, HDAC enzyme was preincubated with test compounds for 30 minutes at 4° C. prior to the start of the enzymatic assay. IC50 values for HDAC enzyme inhibitors were identified with dose response curves for each individual compound and, thereby, obtaining a value for the concentration of inhibitor that produced fifty percent of the maximal inhibition.

[1] = tested on: human colon cancer HCT116 cells; experiment: MTT assay of cell proliferation and cytotoxicity; format: cell-based; details: HCT-116, 48 hours
Method: Four thousand five hundred (4,500) human colon cancer HCT116 cells (ATCC, Manassas, Va. were used in an MTT (3-[4,5-dimethylthiazol-2-yl]-2,5 diphenyl tetrazolium bromide) assay to quantitatively determine cell proliferation and cytotoxicity. Typically, HCT116 cells were plated into each well of the 96-well tissue culture plate and left overnight to attach to the plate. Compounds at various concentrations (1 uM, 5 uM and 25 uM, in DMSO) were added in triplicate into the culture media (final DMSO concentration 1%) and incubated for 48 hours. MTT solution (obtained from Sigma as powder) was added and incubated with the cells for 4 hours at 37° C. in incubator with 5% CO2. During the incubation, viable cells convert MTT to a water-insoluble formazan dye. Solubilizing buffer (50% N,N-dimethylformamide, 20% SDS, pH 4.7) was added to cells and incubate for overnight at 37C in incubator with 5% CO2. Solubilized dye was quantitated by colorimetric reading at […] using a reference of […].

cell cycle arrest = format: cell-based
human HDAC-1 = biological target: T2, human HDAC-1 (Homo sapiens, UniProt Q13547); experiment: histone deacetylase enzyme assay, HDAC-1; format: biochemical
T2 construct: made in house; host or cells: insect cells (baculovirus expression system)
T2 sequence (Q13547 whole entry): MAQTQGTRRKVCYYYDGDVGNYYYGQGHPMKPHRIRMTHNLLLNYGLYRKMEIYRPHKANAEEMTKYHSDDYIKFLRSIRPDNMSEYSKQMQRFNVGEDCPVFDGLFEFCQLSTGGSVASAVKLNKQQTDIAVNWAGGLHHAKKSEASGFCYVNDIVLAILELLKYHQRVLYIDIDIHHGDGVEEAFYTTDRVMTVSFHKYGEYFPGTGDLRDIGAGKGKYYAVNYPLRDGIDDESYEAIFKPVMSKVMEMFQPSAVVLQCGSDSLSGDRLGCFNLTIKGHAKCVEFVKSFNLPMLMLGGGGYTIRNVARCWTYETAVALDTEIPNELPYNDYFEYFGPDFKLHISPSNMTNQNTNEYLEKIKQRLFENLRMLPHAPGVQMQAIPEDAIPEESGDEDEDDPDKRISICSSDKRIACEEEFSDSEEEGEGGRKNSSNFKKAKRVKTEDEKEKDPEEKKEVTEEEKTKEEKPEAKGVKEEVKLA
Method: as §1, §2

human HDAC-4 = biological target: T3, human HDAC-4 (Homo sapiens, UniProt P56524); experiment: histone deacetylase enzyme assay, HDAC-4; format: biochemical
T3 construct: Flag; made in house; host or cells: human embryonic kidney 293 cells (calcium phosphate transfection)
T3 sequence (P56524 whole entry): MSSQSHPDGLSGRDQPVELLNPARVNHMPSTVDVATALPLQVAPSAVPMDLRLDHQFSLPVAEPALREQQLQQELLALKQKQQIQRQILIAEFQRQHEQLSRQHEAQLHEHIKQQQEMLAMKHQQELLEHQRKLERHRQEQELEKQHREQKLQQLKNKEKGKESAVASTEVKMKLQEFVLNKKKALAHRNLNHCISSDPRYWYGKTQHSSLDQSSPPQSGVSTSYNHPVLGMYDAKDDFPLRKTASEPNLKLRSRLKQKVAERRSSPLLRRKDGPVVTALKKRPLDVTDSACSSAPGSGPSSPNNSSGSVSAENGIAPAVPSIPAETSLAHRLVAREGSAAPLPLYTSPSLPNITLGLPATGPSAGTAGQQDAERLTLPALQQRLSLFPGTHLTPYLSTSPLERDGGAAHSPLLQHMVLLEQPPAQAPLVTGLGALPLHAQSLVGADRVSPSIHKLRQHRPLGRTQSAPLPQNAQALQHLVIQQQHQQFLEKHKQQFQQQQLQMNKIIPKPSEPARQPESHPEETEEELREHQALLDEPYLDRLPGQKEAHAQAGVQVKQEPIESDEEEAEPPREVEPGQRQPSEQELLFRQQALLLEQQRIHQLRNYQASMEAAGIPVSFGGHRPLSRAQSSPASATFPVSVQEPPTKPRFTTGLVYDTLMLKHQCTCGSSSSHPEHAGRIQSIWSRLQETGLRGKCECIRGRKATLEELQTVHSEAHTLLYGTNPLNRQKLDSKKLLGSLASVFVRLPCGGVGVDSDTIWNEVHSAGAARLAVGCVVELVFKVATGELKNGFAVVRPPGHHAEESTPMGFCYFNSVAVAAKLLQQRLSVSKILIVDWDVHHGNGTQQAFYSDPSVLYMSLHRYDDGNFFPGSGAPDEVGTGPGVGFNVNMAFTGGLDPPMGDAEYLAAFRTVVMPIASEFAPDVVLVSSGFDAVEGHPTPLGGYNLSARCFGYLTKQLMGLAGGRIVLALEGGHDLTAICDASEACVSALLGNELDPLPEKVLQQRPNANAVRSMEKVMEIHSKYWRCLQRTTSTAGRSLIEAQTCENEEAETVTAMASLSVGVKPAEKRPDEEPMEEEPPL
Method: Flag-tagged human HDAC-4 enzyme was produced in human embronic kidney 293 cells after transformation by the calcium phosphate precipitation method. Briefly, 293 cells were cultured in Dulbecco's Modified Eagle Medium (DMEM) containing 10% fetal bovine serum and antibiotics. Plasmid DNA encoding Flag-tagged human HDAC-4 was precipitated by ethanol and resuspend in sterile water. DNA-calcium precipitates, formed by mixing DNA, calcium choloride and 2×HEPES-buffered saline solution, were left on 293 cells for 12-16 hours. Cells were return to serum-contained DMEM medium and harvested at 48 hour post transfection for purification of Flag-tagged HDAC-4 enzyme.
as §1, §2

human HDAC-6 = biological target: T4, human HDAC-6 (Homo sapiens, UniProt Q9UBN7); experiment: histone deacetylase enzyme assay, HDAC-6; format: biochemical
T4 construct: made in house; host or cells: insect cells (baculovirus expression system)
T4 sequence (Q9UBN7 1-1215): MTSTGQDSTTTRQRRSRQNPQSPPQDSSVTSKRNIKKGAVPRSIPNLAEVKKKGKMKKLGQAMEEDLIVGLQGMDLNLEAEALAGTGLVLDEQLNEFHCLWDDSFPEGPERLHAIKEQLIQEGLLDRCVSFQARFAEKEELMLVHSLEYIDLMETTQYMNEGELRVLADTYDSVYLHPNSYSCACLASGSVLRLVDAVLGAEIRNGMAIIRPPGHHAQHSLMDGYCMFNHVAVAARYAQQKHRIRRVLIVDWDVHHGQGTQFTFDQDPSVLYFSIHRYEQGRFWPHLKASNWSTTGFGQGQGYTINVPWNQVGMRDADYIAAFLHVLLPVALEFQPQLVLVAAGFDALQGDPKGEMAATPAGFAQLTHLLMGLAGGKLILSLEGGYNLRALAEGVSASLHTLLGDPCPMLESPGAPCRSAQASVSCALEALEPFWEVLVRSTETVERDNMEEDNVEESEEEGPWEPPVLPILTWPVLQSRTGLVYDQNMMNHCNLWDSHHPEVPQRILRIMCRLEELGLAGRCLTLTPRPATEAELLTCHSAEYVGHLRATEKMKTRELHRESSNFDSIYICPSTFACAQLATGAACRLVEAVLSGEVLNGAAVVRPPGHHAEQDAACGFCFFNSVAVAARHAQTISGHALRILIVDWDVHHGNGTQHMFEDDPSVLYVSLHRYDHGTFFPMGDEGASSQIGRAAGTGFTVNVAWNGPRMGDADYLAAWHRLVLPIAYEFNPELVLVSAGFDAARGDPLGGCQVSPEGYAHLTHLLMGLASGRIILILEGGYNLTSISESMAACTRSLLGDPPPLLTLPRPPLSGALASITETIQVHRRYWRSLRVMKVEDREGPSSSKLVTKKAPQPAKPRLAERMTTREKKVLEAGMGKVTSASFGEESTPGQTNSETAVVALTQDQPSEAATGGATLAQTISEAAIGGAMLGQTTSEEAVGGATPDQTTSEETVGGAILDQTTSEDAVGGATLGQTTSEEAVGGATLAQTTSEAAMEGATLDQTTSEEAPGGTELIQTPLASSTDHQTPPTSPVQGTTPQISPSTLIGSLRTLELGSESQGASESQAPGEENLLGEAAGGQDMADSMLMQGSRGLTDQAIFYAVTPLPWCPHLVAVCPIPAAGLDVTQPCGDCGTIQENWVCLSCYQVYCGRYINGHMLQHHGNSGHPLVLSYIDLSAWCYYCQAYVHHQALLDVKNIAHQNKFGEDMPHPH
Method: as §1, §2

HDAC 2 = HDAC 2 (Homo sapiens, UniProt Q92769); experiment: histone deacetylase enzyme assay, HDAC 2; format: biochemical
Sequence of HDAC 2 (Q92769 whole entry): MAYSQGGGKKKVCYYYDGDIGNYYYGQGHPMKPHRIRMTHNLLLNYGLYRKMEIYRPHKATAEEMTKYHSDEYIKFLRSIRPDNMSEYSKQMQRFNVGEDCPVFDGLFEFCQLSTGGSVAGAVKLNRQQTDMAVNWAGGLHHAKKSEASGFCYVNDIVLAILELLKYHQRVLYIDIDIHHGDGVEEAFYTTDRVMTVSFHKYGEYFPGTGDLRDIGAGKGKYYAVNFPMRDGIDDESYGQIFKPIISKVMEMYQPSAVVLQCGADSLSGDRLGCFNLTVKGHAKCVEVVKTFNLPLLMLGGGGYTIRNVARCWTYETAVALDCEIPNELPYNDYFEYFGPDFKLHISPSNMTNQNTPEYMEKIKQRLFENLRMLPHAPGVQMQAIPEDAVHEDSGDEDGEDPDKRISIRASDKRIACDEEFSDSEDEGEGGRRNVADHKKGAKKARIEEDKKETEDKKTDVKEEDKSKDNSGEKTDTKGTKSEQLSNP
Method: as §2

[2] = tested on: acetylated histone H-4 in T24 human bladder cancer cells; experiment: inhibition of HDAC activity in whole cells (acetylated histone H-4 Western); format: cell-based; details: 16 hours
Method: T24 human bladder cancer cells (ATCC, Manassas, Va.) growing in culture were incubated with test compounds for 16 hours. Histones were extracted from the cells by standard procedures (see e.g. Yoshida et al., supra) after the culture period. Twenty μg total core histone protein was loaded onto SDS/PAGE and transferred to nitrocellulose membranes, which were then reacted with polyclonal antibody specific for acetylated histone H-4 (Upstate Biotech Inc., Lake Placid, […].). Horse Radish Peroxidase conjugated secondary antibody was used at a dilution of 1:5000 to detect primary antibody binding. The secondary antibody binding was visualized by use of the Enhanced chemiluminescence (ECL) detection kit (Amersham-Pharmacia Biotech., Inc., Piscataway, N.J.). After exposure to film, acetylated H-4 signal was quantitated by densitometry.

p21 = p21 induction by small molecules; format: cell-based
[3] = tested on: human colon cancer cells (HCT116); experiment: tumor growth in a mouse model, colon; format: in vivo, BALB/c nude mice; details: 40 mg/kg body weight/day, i p; vs vehicle-treated mice
Method: Female BALB/c nude mice were obtained from Charles River Laboratories (Charles River, NY) and used at age 8-10 weeks. Human prostate tumor cells (DU145, 2×10^6) or human colon cancer cells (HCT116; 2×10^6) or small lung core A549 2×10^6 were injected subcutaneously in the animal's flank and allowed to form solid tumors. Tumor fragments were serially passaged a minimum of three times, then approximately 30 mg tumor fragments were implanted subcutaneously through a small surgical incision under general anaesthesia. Small molecule inhibitor administration by intraperotineal or oral administration was initiated when the tumors reached a volume of 100 mm^3. For intraperotineal administration, small molecule inhibitors of HDAC (40-50 mg/kg body weight/day) were dissolved in 100% DMSO and administered daily intraperitoneally by injection. For oral administration, small molecule inhibitors of HDAC (40-50 mg/kg body weight/days) were dissolved in a solution containing 65% polyethylene glycol 400 (PEG 400 (Sigma-Aldridge, Mississauga, Ontario, Calif., Catalogue No. P-3265), 5% ethanol, and 30% water. Tumor volumes were monitored twice weekly up to 20 days. Each experimental group contained at least 6-8 animals. Percentage inhibition was calculated using volume of tumor from vehicle-treated mice as controls.

T1 sequence (O15379 whole entry): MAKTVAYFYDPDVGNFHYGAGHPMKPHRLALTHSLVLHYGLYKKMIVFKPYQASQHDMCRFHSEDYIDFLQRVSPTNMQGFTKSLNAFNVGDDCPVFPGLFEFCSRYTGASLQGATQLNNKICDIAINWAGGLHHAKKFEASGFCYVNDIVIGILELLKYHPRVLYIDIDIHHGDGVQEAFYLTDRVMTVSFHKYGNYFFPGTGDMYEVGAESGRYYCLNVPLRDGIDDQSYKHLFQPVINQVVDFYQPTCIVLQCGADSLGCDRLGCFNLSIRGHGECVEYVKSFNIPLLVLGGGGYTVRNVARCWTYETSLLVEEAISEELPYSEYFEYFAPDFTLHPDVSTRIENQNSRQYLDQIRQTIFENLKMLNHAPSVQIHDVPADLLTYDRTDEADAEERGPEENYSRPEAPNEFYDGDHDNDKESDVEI

Row | IC50 (HDAC 2) | SMILES | IC50 (human HDAC-3) | IC50 [1] | cell cycle arrest EC (cell cycle arrest) | IC50 (human HDAC-1) | IC50 (human HDAC-4) | IC50 (human HDAC-6) | effective concentration for histone H4 acetylation [2] | p21 induction (p21) | % inh. of tumor formation in vivo, colon [3]
1 | 25 µM | CC(/C=C/C(=O)Nc1ccccc1N)=C\C(C)C(=O)c1ccc(N(C)C)cc1 (stereo not drawn) [MG 242 9] | 21 µM | 1 µM | 2 µM | 3 µM | 23 µM | > 50 µM | 1 µM | 3 µM | –
2 | – | Cc1ccc(S(=O)(=O)Nc2ccc(/C=C/C(=O)Nc3ccccc3N)cc2)cc1 [MG 376 3] | 45 µM | 4 µM | 2 µM | 3 µM | 28 µM | > 50 µM | 5 µM | 2 µM | 55 (40, i p) %
